BindingDB's records for doi:10.1021/jm00151a024 (1986)

Assay: Apparent binding affinity for Alanine racemase from Pseudomonas aeruginosa

Structure (SMILES)	Ki [µM]
NC(CCl)P(=O)(O)O (configuration not stated) [(1-Amino-2-chloro-ethyl)-phosphonic acid]	820
NC(C(Cl)Cl)P(=O)(O)O (configuration not stated) [(1-Amino-2,2-dichloro-ethyl)-phosphonic acid]	2000
